These results are taken from US20020164663A1, “Methods and compositions for detection, diagnosis and prediction of antiestrogen-resistant breast cancer” (BOARD OF REGENTS, THE UNIVERSITY OF TEXAS SYSTEM, priority 1998, published 2002).

In assay [1] the test system is MCF-7 tumors. The experiment in a line: MCF-7 tumors in mammary fat pads of athymic nude mice, tamoxifen treatment after removal of estrogen pellet. In kind it is in vivo. The note with it: athymic nude mice with MCF-7 tumors; estrogen pellets removed, treated with tamoxifen; later tumors became resistant and growth resumed. The procedure: (§1) MCF-7 tumors were inoculated into the mammary fat pads of athymic nude mice supplemented with an estrogen pellet as described previously (Osborne et al., 1985) until tumors arose. The estrogen pellets were removed and the animals were treated with tamoxifen. […] Invariably, however, after initial growth suppression, the tumors became resistant and growth resumed. Animals were sacrificed at various times to obtain cells from estrogen-stimulated (ES) tumors prior to tamoxifen treatment, from tamoxifen-sensitive (TS) tumors during tamoxifen treatment but prior to acquired resistance, and from tamoxifen-resistant (TR) tumors after tumor growth had resumed.

The test system of assay [2] is VEGF. The experiment in a line: cDNA expression array of MCF-7 tumors (estrogen-stimulated, tamoxifen-sensitive, tamoxifen-resistant). In kind it is in vivo, human. The note with it: breast cancers treated with tamoxifen in comparison with estrogen-stimulated breast cancer; FIG. 6. The procedure:
as §1
(§2) RNA was prepared from these tumors (n=5 tumors per group) using RNeasy kits (Qiagen Inc., Valencia, Calif.), and mRNA was isolated on Dynabeads (Dyne, Oslo, Norway) according to manufacturer's instructions. […]
(§3) The controls, which were more difficult to quantitate reliably, were not included in the statistical analyses. […]
(§4) Principal Components Analysis (PCA) of mean-centered log-transformed data, based on the variance-covariance matrix (Tatsuoka, 1971), was then used to standardize across the three hybridizations and to extract three new axes (components P1, P2, and P3), expressed as linear combinations of the original axes (ES, TS, and TR). […]

Assay [3] has as its system bFGFR. Described as above. In kind it is in vivo, human. The note with it: breast cancers treated with tamoxifen in comparison with estrogen-stimulated breast cancer; FIG. 6. The procedure:
as §1, §2, §3, §4

For `CC/C(=C(\c1ccccc1)c1ccc(OCCN(C)C)cc1)c1ccccc1` [tamoxifen], the Tumor volumes result in assay [1] is “declined and remained stable for several months”. In addition, in assay [2], the VEGF expression entry is on record as “decreased expression”. In addition, the bFGFR expression result in assay [3] is recorded as “decreased expression”.
